Results published in US20170137433A1, “CRYSTALLINE, ANHYDROUS FORMS OF OXYMORPHONE HYDROCHLORIDE” (Endo Pharmaceuticals Inc., priority 2011, published 2017).
Structures can show the parent of a compound that is named as a salt.

Test: Solid-form stability of the polymorph (heat treatment / storage observation)
Assay type: physicochemical
Conditions: at room temperature and at elevated temperatures; solid form obtained by heating at 200° C. for 3-4 hours in a drying oven
Protocol: This polymorph was obtained by a heat treatment of either the above-described polymorph mixture or of oxymorphone hydrochloride monohydrate at 200° C. for a period of 3-4 hours in a drying oven.

CN1CC[C@]23c4c5ccc(O)c4O[C@H]2C(=O)CC[C@@]3(O)[C@H]1C5 [second polymorph, crystalline, anhydrous hydrochloride salt of 4,5α-epoxy-3,14-dihydroxy-17-methylmorphinan-6-one]
polymorphic form stability: stable at room temperature and at elevated temperatures
